# Laboratory results as given in EP0973746B1, “SUBSTITUTED 3-CYANO QUINOLINES” (Wyeth Holdings Corporation, priority 1997, dated 1998).
# Like-named read-outs stand apart in the source and are kept apart here.
# Experiments:
# [1] = molecular target: recombinant human MEK 1 (MAPKK) and recombinant human ERK2 (MAPK); test: Mitogen Activated Protein Kinase (MAPK) assay, two component coupled MEK 1 / ERK2; format: biochemical; conditions: separate entries for the same compound = evaluated more than one time;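 further: MEK 1-activated ERK2 phosphorylates MBP or Myc peptide with 33P-ATP, filter capture and scintillation counting, inhibitor preincubated with ERK2 30 min at 0 °C, inhibition relative to uninhibited control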
# [2] = tested on: LNCAP; test: Inhibition of cancer cell growth as measured by cell number, LNCAP; format: cell-based; conditions: Homo sapiens, 48 h, read-out: IC50 LNCAP
# [3] = tested on: CX1; test: Inhibition of cancer cell growth as measured by cell number, CX1; format: cell-based; conditions: Homo sapiens, read-out: IC50 CX1
# [4] = tested on: SKBR3; test: Inhibition of cancer cell growth as measured by cell number, SKBR3; format: cell-based, human; conditions: Homo sapiens, SK-BR-3, 48 h, read-out: IC50 SKBR3, cell number, Sulforhodamine B, 48 hours exposure; Table 7;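 further: SK-BR-3 cells were selected as a line overexpressing HER2/neu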
# From the text: (§1) The cell lines were chosen since they overexpressed epidermal growth factor receptor (EGFR) (i.e. A431) or HER2/neu (SKBR3), or had little to no expression of the these receptors (SW620, LOX, MCF7).
# [5] = tested on: HTB161; test: Inhibition of cancer cell growth as measured by cell number, HTB161; format: cell-based; conditions: Homo sapiens, read-out: IC50 HTB161
# [6] = tested on: A27805; test: Inhibition of cancer cell growth as measured by cell number, A27805; format: cell-based; conditions: Homo sapiens, read-out: IC50 A27805
# [7] = tested on: NHEK; test: Inhibition of cell growth by incorporation of [3H]-thymidine, NHEK; format: cell-based, human; conditions: Homo sapiens, read-out: IC50 NHEK
# [8] = tested on: LS174T; test: Inhibition of cancer cell growth as measured by cell number, LS174T; format: cell-based; conditions: Homo sapiens
# [9] = tested on: LOX; test: Inhibition of cancer cell growth as measured by cell number, LOX; format: cell-based, human; conditions: Homo sapiens, LOX, 48 h, Table 6;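 further: LOX cells served as a line with low or absent EGFR and HER2/neu expression, in contrast to receptor-overexpressing lines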
# From the text: as §1
# [10] = molecular target: epidermal growth factor receptor kinase (Homo sapiens, UniProt P00533); test: biochemical
# Method: The enzyme was obtained as a membrane extract of A431 cells (American Type Culture Collection, Rockville, MD). A431 cells were grown in T175 flasks to 80% confluency. The cells were washed twice with phosphate buffered saline (PBS) without Ca^2+. Flasks were rotated for 1.5 hours in 20 ml PBS with 1.0 mM ethylenediaminetetraacetic acid (EDTA) at room temperature and centrifuged at 600g for 10 minutes. The cells were solubilized in 1 ml per 5 x 10^6 cells of cold lysis buffer {10mM 4-(2-hydroxyethyl)-1-piperazineethane-sulfonic acid (HEPES), pH 7.6, 10 mM NaCl, 2mM EDTA, 1mM phenylmethyl-sulfonyl-fluoride (PMSF), 10 mg/ml aprotinin, 10 mg/ml leupeptin, 0.1 mM sodium orthovanadate} in a Dounce homogenizer with 10 strokes on ice. The lysate was centrifuged at 600g for 10 minutes first to clear cell debris and the supernatant further centrifuged at 100,000 g for 30 min at 4°C. The membrane pellet was suspended in 1.5 ml HNG buffer (50 mM HEPES, pH 7.6, 125 mM NaCl, 10% glycerol). The membrane extract was divided into aliquots, immediately frozen in liquid nitrogen and stored at -70°C.
# Compounds to be evaluated were made into 10 mg/ml stock solutions in 100% dimethylsulfoxide (DMSO). Prior to experiment, stock solutions were diluted to 500 mM with buffer (30 mM Hepes pH 7.4) and then serially diluted to the desired concentration.
# An aliquot of the A431 membrane extract (10 mg/ml) was diluted in 30 mM HEPES (pH 7.4) to give a protein concentration of 50 ug/ml. […] To this was added the ^33p-ATP (10 mCi/ml) diluted 1:10 in assay buffer along with the substrate peptide at a concentration of 0.5 mM (control reactions get no test compound) and the reaction was allowed to proceed for 30 min at 30°C. The reaction was stopped with 10% TCA and left on ice for at least 10 min after which tubes were microcentrifuged at full speed for 15 min. The a portion of the supernatants were spotted on P81 phosphocellulose discs and washed twice in 1% acetic acid then water for 5 min each followed by scintillation counting. […] The % inhibition of the test compound was determined for at least three different concentrations and the IC50 value was evaluated from the dose response curve. […] CPM(control) is in units of counts per minute and was a number expressing the amount of radiolabeled ATP (g-^33P) incorporated into the RR-SRC peptide substrate by the enzyme after 30 minutes at 30°C in the absence of test compound as measured by liquid scintillation counting. The CPM values were corrected for the background counts produced by ATP in the absence of the enzymatic reaction. The IC50 values reported in TABLE 1 are averages of the number of tests conducted.
# [11] = tested on: CCRF-CFM; test: Inhibition of cancer cell growth as measured by cell number, CCRF-CFM; format: cell-based; conditions: Homo sapiens, read-out: IC50 CCRF-CFM
# [12] = tested on: DU145; test: Inhibition of cancer cell growth as measured by cell number, DU145; format: cell-based; conditions: Homo sapiens, read-out: IC50 DU145
# [13] = tested on: CACO2; test: Inhibition of cancer cell growth as measured by cell number, CACO2; format: cell-based; conditions: Homo sapiens, read-out: IC50 CACO2
# [14] = tested on: CCL228; test: Inhibition of cancer cell growth as measured by cell number, CCL228; format: cell-based; conditions: Homo sapiens, read-out: IC50 CCL228
# [15] = tested on: A2780DDP; test: Inhibition of cancer cell growth as measured by cell number, A2780DDP; format: cell-based; conditions: Homo sapiens, read-out: IC50 A2780DDP
# [16] = tested on: MCF7; test: Inhibition of cancer cell growth as measured by cell number, MCF7; format: cell-based, human; conditions: Homo sapiens, MCF7, 48 h, read-out: IC50 MCF7, cell number, Sulforhodamine B, 48 hours exposure; Table 5;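 further: MCF7 was included as a line with little or no EGFR or HER2/neu expression, in contrast to the receptor-overexpressing lines of the panel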
# From the text: as §1
# [17] = tested on: PC3; test: Inhibition of cancer cell growth as measured by cell number, PC3; format: cell-based; conditions: Homo sapiens, read-out: IC50 PC3
# [18] = tested on: COLO205; test: Inhibition of cancer cell growth as measured by cell number, COLO205; format: cell-based; conditions: Homo sapiens, COLO 205, 48 h, read-out: IC50 COLO205
# [19] = tested on: A431; test: Inhibition of cancer cell growth as measured by cell number, A431; format: cell-based, human; conditions: Homo sapiens, A-431, 48 h, Table 6;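 further: human A431 line, picked because it overexpresses epidermal growth factor receptor (EGFR)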
# From the text: as §1
# [20] = tested on: A431; test: Inhibition of cell growth by incorporation of [3H]-thymidine, A431; format: cell-based, human; conditions: Homo sapiens
# Method: Representative compounds of this invention were evaluated for their ability to inhibit the growth of the cell lines described below in vitro. The inhibition is quantitated by measuring the decrease in the incorporation of radio-labeled thymidine when the cells are grown in the presence of the inhibitor. […] Cells were routinely grown in a humidified incubator in 5% CO2 in air.
# Cells were seeded at 10,000 cells/well in 96 well plates in complete media and allowed to grow to log phase. At this stage the complete media was replaced with media containing 0.5% FBS (for cells growing in 10% FBS) or media lacking epidermal growth factor (EGF) (for cells growing in serum free media). […] Media with test compound was then removed and complete media was added back. The cells were allowed to grow for 18 hours. This is followed by incubation in [^3H]thymidine (1mCi/ml in serum/EGF media) for 4 hours. Cells were lysed in 0.5 M NaOH for at least 30 min at 37°C and radioactivity analyzed.
# The % inhibition of the compound evaluated was determined for at least three different concentrations and the IC50 value evaluated from the dose response curve. […] CPM(control) is in units of counts per minute and is a number expressing the amount of [^3H]thymidine incorporated onto the DNA when cells are grown in the absence of test compound as measured by liquid scintillation counting.
# [21] = tested on: LX1; test: Inhibition of cancer cell growth as measured by cell number, LX1; format: cell-based; conditions: Homo sapiens, read-out: IC50 LX1
# [22] = tested on: A549; test: Inhibition of cancer cell growth as measured by cell number, A549; format: cell-based; conditions: Homo sapiens, read-out: IC50 A549
# [23] = tested on: T47D; test: Inhibition of cancer cell growth as measured by cell number, T47D; format: cell-based; conditions: Homo sapiens
# [24] = tested on: HL60; test: Inhibition of cancer cell growth as measured by cell number, HL60; format: cell-based; conditions: Homo sapiens, read-out: IC50 HL60
# [25] = tested on: NEC; test: Inhibition of cancer cell growth as measured by cell number, NEC; format: cell-based; conditions: Homo sapiens, 48 h, read-out: IC50 NEC
# [26] = tested on: SW620; test: Inhibition of cancer cell growth as measured by cell number, SW620; format: cell-based, human; conditions: Homo sapiens, SW-620, 48 h, Table 4;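 further: SW620 was included as a cell line with little or no EGFR or HER2/neu expression, in contrast to receptor-overexpressing lines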
# From the text: as §1
# [27] = tested on: HCT15; test: Inhibition of cancer cell growth as measured by cell number, HCT15; format: cell-based; conditions: Homo sapiens, read-out: IC50 HCT15
# [28] = tested on: MIP; test: Inhibition of cancer cell growth as measured by cell number, MIP; format: cell-based; conditions: Homo sapiens; cell number, Sulforhodamine B, 48 hours exposure; Table 4; read-out: IC50 MIP
# [29] = tested on: SW948; test: Inhibition of cancer cell growth as measured by cell number, SW948; format: cell-based; conditions: Homo sapiens, read-out: IC50 SW948
# [30] = tested on: B7474; test: Inhibition of cancer cell growth as measured by cell number, B7474; format: cell-based; conditions: Homo sapiens, read-out: IC50 B7474
# [31] = cell number, Sulforhodamine B, 48 hours exposure, Table 4
# epidermal growth factor receptor kinase, sequence (P00533 25-1210): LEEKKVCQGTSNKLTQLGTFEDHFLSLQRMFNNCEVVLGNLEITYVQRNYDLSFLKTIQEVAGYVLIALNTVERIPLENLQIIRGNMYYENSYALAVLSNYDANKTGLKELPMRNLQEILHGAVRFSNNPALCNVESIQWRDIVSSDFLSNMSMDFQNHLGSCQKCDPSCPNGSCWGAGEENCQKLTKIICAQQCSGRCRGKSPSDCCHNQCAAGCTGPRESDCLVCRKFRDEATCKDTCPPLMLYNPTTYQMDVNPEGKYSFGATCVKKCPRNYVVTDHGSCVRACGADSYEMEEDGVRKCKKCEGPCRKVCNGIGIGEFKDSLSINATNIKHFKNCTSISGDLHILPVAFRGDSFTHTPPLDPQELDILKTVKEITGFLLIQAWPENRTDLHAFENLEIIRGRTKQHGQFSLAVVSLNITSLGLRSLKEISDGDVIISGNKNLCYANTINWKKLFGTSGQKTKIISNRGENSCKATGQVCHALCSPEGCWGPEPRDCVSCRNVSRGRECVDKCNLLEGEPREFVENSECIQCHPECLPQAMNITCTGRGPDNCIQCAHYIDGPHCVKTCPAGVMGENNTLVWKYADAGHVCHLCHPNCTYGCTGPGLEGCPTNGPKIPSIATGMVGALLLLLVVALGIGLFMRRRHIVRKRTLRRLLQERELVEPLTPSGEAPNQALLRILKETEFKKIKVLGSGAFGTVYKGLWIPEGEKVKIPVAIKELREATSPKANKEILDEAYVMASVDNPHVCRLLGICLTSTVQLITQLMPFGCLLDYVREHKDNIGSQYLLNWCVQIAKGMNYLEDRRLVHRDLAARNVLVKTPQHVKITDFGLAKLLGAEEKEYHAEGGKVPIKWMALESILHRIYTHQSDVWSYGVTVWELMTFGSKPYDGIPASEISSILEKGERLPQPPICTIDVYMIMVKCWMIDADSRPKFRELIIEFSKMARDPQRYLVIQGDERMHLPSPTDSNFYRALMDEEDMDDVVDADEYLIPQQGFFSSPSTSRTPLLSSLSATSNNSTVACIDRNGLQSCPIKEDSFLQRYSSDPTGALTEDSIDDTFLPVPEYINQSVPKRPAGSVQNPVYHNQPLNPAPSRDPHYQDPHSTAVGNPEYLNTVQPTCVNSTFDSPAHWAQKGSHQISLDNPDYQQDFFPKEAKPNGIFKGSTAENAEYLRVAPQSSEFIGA
structure (smiles),measurement,setting,value
"CC#CC(=O)Nc1cc2c(Nc3cccc(Br)c3)c(C#N)cnc2cc1OC [Example 8, N-[4-[(3-Bromophenyl)amino]-3-cyano-7-methoxy-6-guinolinyl]-2-butynamide]",IC50,[1],> 100000 nM
same,IC50,[2],59.4 µg/mL
same,IC50,"[3]; CX-1, 48 h",7.55 µg/mL
same,IC50,[4],38.3 µg/mL
same,IC50,[5]; 48 h,98.8 µg/mL
same,IC50,[6]; 48 h,0.912 µg/mL
same,IC50,[7],200 nM
same,IC50,"[8]; 48 h, read-out: IC50 LS174T",2.03 µg/mL
same,IC50,"[9]; read-out: IC50 LOX, cell number, Sulforhodamine B, 48 hours exposure",0.647 µg/mL
same,IC50,[10],150 nM
same,IC50,[11]; 48 h,0.823 µg/mL
same,IC50,"[12]; DU-145, 48 h",6.47 µg/mL
same,IC50,"[13]; Caco-2, 48 h",2.33 µg/mL
same,IC50,[14]; 48 h,8.67 µg/mL
same,IC50,[15]; 48 h,6.79 µg/mL
same,IC50,[16],53.2 µg/mL
same,IC50,"[17]; PC-3, 48 h",53.4 µg/mL
same,IC50,[18],2.49 µg/mL
same,IC50,"[19]; read-out: IC50 A431, cell number, Sulforhodamine B, 48 hours exposure",9.59 µg/mL
same,IC50,"[20]; A-431, read-out: IC50 A431",40000 nM
same,IC50,"[21]; LX-1, 48 h",0.932 µg/mL
same,IC50,"[22]; A549, 48 h",7.28 µg/mL
same,IC50,"[23]; 48 h, read-out: IC50 T47D",39.5 µg/mL
same,IC50,"[24]; HL-60, 48 h",18.9 µg/mL
same,IC50,[25],9.3 µg/mL
same,IC50,"[26]; read-out: IC50 SW620, cell number, Sulforhodamine B, 48 hours exposure",2.5 µg/mL
same,IC50,"[27]; HCT-15, 48 h",10.9 µg/mL
same,IC50,[28],0.354 µg/mL
same,IC50,"[29]; SW948, 48 h",86.9 µg/mL
same,IC50,[30]; 48 h,55.5 µg/mL
"CC(=O)Nc1ccc2ncc(C#N)c(Nc3cccc(Br)c3)c2c1 [Example 16, N-[4-[(3-Bromophenyl)amino]-3-cyano-6-quinolinyl] acetamide]",IC50,"[3]; CX-1, cell number, Sulforhodamine B, 48 hours exposure, Table 4",0.978 µg/mL
same,IC50,[5]; [31],0.667 µg/mL
same,IC50,[6]; [31],0.602 µg/mL
same,IC50,[7]; [3H]-thymidine incorporation,60 nM
same,IC50,"[8]; cell number, Sulforhodamine B, 48 hours exposure, Table 5, read-out: IC50 LS174T",0.434 µg/mL
same,IC50,"[9]; cell number, Sulforhodamine B, 48 hours exposure, read-out: IC50 LOX",0.316 µg/mL
same,IC50,[10],1.5 nM
same,IC50,"[11]; cell number, Sulforhodamine B, 48 hours exposure, Table 7",0.729 µg/mL
same,IC50,"[12]; DU-145, cell number, Sulforhodamine B, 48 hours exposure, Table 7",0.113 µg/mL
same,IC50,"[13]; Caco-2, cell number, Sulforhodamine B, 48 hours exposure, Table 5",0.71 µg/mL
same,IC50,"[14]; cell number, Sulforhodamine B, 48 hours exposure, Table 5",4.38 µg/mL
same,IC50,[15]; [31],0.596 µg/mL
same,IC50,"[17]; PC-3, cell number, Sulforhodamine B, 48 hours exposure, Table 7",3.04 µg/mL
same,IC50,"[19]; cell number, Sulforhodamine B, 48 hours exposure, read-out: IC50 A431",0.766 µg/mL
same,IC50,"[20]; A-431, [3H]-thymidine incorporation, A431, read-out: IC50 A431",1800 nM
same,IC50,"[21]; LX-1, cell number, Sulforhodamine B, 48 hours exposure, Table 6",0.644 µg/mL
same,IC50,"[22]; A549, cell number, Sulforhodamine B, 48 hours exposure, Table 6",0.214 µg/mL
same,IC50,"[23]; cell number, Sulforhodamine B, 48 hours exposure, Table 6, read-out: IC50 T47D",6.55 µg/mL
same,IC50,"[24]; HL-60, cell number, Sulforhodamine B, 48 hours exposure, Table 7",0.696 µg/mL
same,IC50,"[26]; cell number, Sulforhodamine B, 48 hours exposure, read-out: IC50 SW620",> 100 µg/mL
same,IC50,"[27]; HCT-15, cell number, Sulforhodamine B, 48 hours exposure, Table 5",0.641 µg/mL
same,IC50,[28],0.534 µg/mL
same,IC50,"[29]; SW948, cell number, Sulforhodamine B, 48 hours exposure, Table 5",0.928 µg/mL
same,IC50,"[30]; cell number, Sulforhodamine B, 48 hours exposure, Table 6",0.899 µg/mL
